Reference: EP0925070B1, “ANTIFUNGAL COMBINATION THERAPY” (MERCK & CO., INC., priority 1996, dated 1998)

Columns and labels:
A. fumigatus [1] = assay: broth microdilution antifungal susceptibility / drug combination testing in vitro (NCCLS protocol M27-T); type: cell-based
Source text: (§1) This has been shown using a broth microdilution technique which is the standard method for antifungal susceptibility testing proposed by the NCCLS (protocol M27-T). Sub-inhibitory concentrations of Compound I in combination with sub-inhibitory concentrations of AmB and sub-inhibitory concentrations of FCZ were employed. The minimal inhibitory concentrations (MICs) for AmB and Compound I were defined as the lowest drug concentration at which there was an absence of growth.
(§2) Additional drug combination testing in vitro was performed to evaluate combinations of Compound I with AmB and FCZ against clinical isolates. There was no antagonism evident between Compound I and AmB against C. albicans, A. fumigatus and C. neoformans. Fractional inhibitory indices (FIC) were approximately 0.50 or lower, indicative of additive or synergistic activity.

C. albicans [2] = assay: as above; type: cell-based
Source text: as §1, §2

C. neoformans [3] = assay: as above; type: cell-based; settings: for activity against strains of C. neoformans in vitro: sub-inhibitory concentrations
Source text: as §1, §2

C. neoformans [4] = assay: drug interaction and efficacy study, disseminated cryptococcosis; type: in vivo; settings: combinations of Compound I and FCZ at certain concentrations
Experimental: (§3) Drug interaction and efficacy studies with Compound I combined with either AmB or FCZ against disseminated candidiasis, aspergillosis and cryptococcosis were performed.

[5] = test system: disseminated candidiasis, aspergillosis and cryptococcosis; assay: drug interaction and efficacy studies in vivo, overall statements; settings: for adverse effects: at high, use or lower concentrations
Experimental: as §3

A. fumigatus [6] = assay: drug interaction and efficacy study, disseminated aspergillosis; type: in vivo; settings: Compound I at 0.008 mg/kg combined with AmB at 0.12 mg/kg, versus the compounds administered alone
Experimental: as §3

C. albicans [7] = assay: drug interaction and efficacy study, disseminated candidiasis; type: in vivo; settings: Compound I 0.03 mg/kg and lower plus 0.03 mg/kg and lower of AmB
Experimental: as §3

[8] = Compound I in combination with AmB

CCC(C)CC(C)CCCCCCCCC(=O)N[C@H]1C[C@@H](O)[C@@H](NCCN)NC(=O)[C@@H]2[C@@H](O)CCN2C(=O)[C@H]([C@H](O)CCN)NC(=O)[C@H]([C@H](O)[C@@H](O)c2ccc(O)cc2)NC(=O)[C@@H]2C[C@@H](O)CN2C(=O)[C@H]([C@@H](C)O)NC1=O (stereo partly shown) [Compound I]
activity in vitro (A. fumigatus [1]; [8]): enhanced activity | antagonism between Compound I and AmB (A. fumigatus [1]; in vitro, clinical isolates): no antagonism | activity in vitro (C. albicans [2]; [8]): enhanced activity | antagonism between Compound I and AmB (C. albicans [2]; in vitro, clinical isolates): no antagonism | activity of fluconazole, CFU numbers (C. neoformans [3]; Compound I combined with fluconazole 0.25, 0.50 and 1.0 µg/ml, organism not printed): significantly enhanced the activity of fluconazole | activity against strains of C. neoformans in vitro (C. neoformans [3]; [8]): enhanced activity | activity against strains of C. neoformans in vitro (C. neoformans [3]; Compound I in combination with FCZ): enhanced activity | colony forming units (CFUs) (C. neoformans [3]; amphotericin B 0.0075, 0.015 and 0.03 µg/ml combined with Compound I 4, 8 and 16 µg/ml, organism not printed): markedly reduced | antagonism between Compound I and AmB (C. neoformans [3]; in vitro, clinical isolates, C. neoformans): no antagonism | efficacy against C. neoformans (C. neoformans [4]): Beneficial effects on efficacy | antagonism of efficacy ([5]; AmB combined with Compound I): no antagonism of efficacy | adverse effects ([5]; Compound I combined with AmB): no adverse effects | adverse effects ([5]; Compound I combined with FCZ): no adverse effects | antagonism of efficacy ([5]; FCZ combined with Compound I): no antagonism of efficacy | survival (A. fumigatus [6]): Significant improvement in survival | efficacy against C. albicans (C. albicans [7]): more efficacious than either agent administered alone
